# Measurements as given in patent US9096532B2, “Pyrazole inhibitors of COX-2 and sEH” (The Regents of the University of California, priority 2010, dated 2015).
# “Also recorded” adds a separate entry of the source.
# Tests used:
# [1] = system: LPS induced allodynia; assay: Von Frey mechanical nociceptive assay, LPS induced model of inflammatory pain; type: in vivo; details: male SD rats, 10 mg/kg s.c. 60 minutes before intraplantar LPS, tested until 6 hours post LPS
# Description: In vivo anti-allodynic effects of the COX-2/sEH dual inhibitors provided herein was assayed. An LPS induced model of inflammatory pain was used to compare the pain reducing activity of the COX-2/sEH dual inhibitors to combination and individual therapies.
# Rats weighing approximately 250-300 grams are brought to the testing apparatus and allowed to acclimate for 30 minutes. After 30 minutes the rats are tested with a von Frey aesthesiometer for their non-treated baseline withdrawal latency to mechanical stimulation. The von Frey apparatus is a raised metal mesh platform that has clear acrylic chambers to enclose rats but allow them to move freely. A rigid tip von Frey probe is used to probe the plantar surface of the rat hind paw though the mesh floor to elicit a withdrawal response. The measures recorded are grams of force applied to the hind paw required to elicit a withdrawal. The pretreatment baseline score is considered the pain-free baseline (BL) and is assigned 100% for further response calculations. […] The measures are then calculated as a percent of the pretreatment baseline score.
# [2] = system: HUVEC cells; assay: HUVEC endothelial tube formation assay; type: cell-based, human; details: treated for 4-6 hours, FIG. 12
# Description: Endothelial tube formation assay was carried out using a slightly modified method described by Arnaoutova and Kleinman (Nat. Protocols 5, 628-635). Briefly, 96-well plates were coated with growth-factor reduced Matrigel (50 μL per well, BD Biosciences, San Jose, Calif.) at 37° C. for 30 min. HUVEC cells were seeded into the 96-well plates at 2×10^4 cells per well in 100 μL serum-free F-12K medium with or without test compounds and incubated for 6 h 37° C. in the incubator. Microscope image was recorded and analyzed by NIH Image J software.
# [3] = system: mouse aortic ring vessel sprouting; assay: Mouse aortic ring assay; type: cell-based; details: FIG. 13
# Description: Mouse aorta ring assay was carried out using a slightly modified method described by Bellacen and Lewis (J Vis Exp, e1564). The 48-well plates were coated with 50 μL per well growth-factor reduced Matrigel at 37° C. for 30 min. The aorta of C57BL/6 mice was harvested, washed with cold serum-free F-12K medium 5-6 times, and cut to ˜1 mm length pieces. The aorta ring was put in the center area of Matrigel-coated 48-well plates, then another 100 μL Matrigel was added into each well and incubated at 37° C. for another 30 min. Complete endothelial EGM-2 culture medium (500 μL per well) with or without test compounds was added into each well, incubated in 37° C. incubators for 6-12 days, microscope image was recorded and analyzed by NIH Image J software.
# [4] = system: cancer cells (H-1, PC-3, A375, Met-1); assay: Cancer cell proliferation assay (MTT); type: cell-based; details: times higher than in endothelial cells, FIG. 14
# Description: Cells (HUVEC, H-1, PC-3, A375, Met-1) were seeded into 96-well plates at 1.0-1.5×10^3 cells per well in 100 μL complete medium. After 24 h, the medium was replaced with fresh complete medium containing test compounds and the cells were incubated for another 72 hours. Cell viability was assessed by MTT assay (Sigma-Aldrich).
# [5] = system: VEGF-induced angiogenesis; assay: In vivo angiogenesis assay (Matrigel plug); details: C57BL/6 mice, n=6 per group, FIG. 15
# Description: Male C57BL/6 mice were purchased from Charles River Lab. After acclimation for 1 wk in a standard animal facility, the animals were lightly anesthesized using 1-4% isoflurane in oxygen (2 L/min) and placed on a heated stage to maintain body temperature at 37° C. Growth-factor reduced Matrigel (0.5 mL, BD Biosciences, San Jose, Calif.) mixed with 100 ng mouse VEGF 164 (R&D Systems, Minneapolis, Minn.), 20 U heparin (APP Pharmaceuticals, Schaumburg, Ill.), with or without test compounds were subcutaneously injected into the mice at the abdominal area. Each mouse was injected with two gels (with/without test compounds) symmetrically in the abdomen. After 4-7 days, the animals were euthanized and dissected to recover the implanted Matrigel plugs. Hemoglobin contents inside the Matrigel implants were analyzed by Drabkin's reagent (Sigma-Aldrich, St. Louis, Mont.).
# [6] = system: Met-1 breast cancer; assay: In vivo Met-1 tumor growth; details: FVB mice, 0.1 mg/kg/day by mini-pump, FIG. 16
# From the text: Cells derived from highly metastatic breast cancer Met-1 will be transplanted into the fat pads of FVB female mice. […] Over this period, animals will be checked 3 times per week with ultrasound to mark changes in tumor growth and size. Ultrasound contrast agent microbubbles will also be administered during each ultrasound session by IV injection to track changes in tumor vasculature (Invest Radiol 46, 215-224).
smiles,measurement,setting,value
"NS(=O)(=O)c1ccc(-n2nc(CCCNC(=O)Nc3ccc(C(F)(F)F)cc3)cc2-c2ccccc2)cc1 [Compound 21i, 4-(5-Phenyl-3-{3-[3-(4-trifluoromethyl-phenyl)-ureido]-propyl}-pyrazol-1-yl)-benzenesulfonamide]","Anti-allodynic effect, von Frey paw withdrawal, in words",[1],better in vivo efficacy in a pain model in rats compared to celecoxib and t-AUCB combination therapy; also recorded: superior effect compared to the combination therapies; also recorded: superior anti-allodynic activity; also recorded: more efficient than the combination of celecoxib with t-AUCB
same,"HUVEC tube formation, in words",[2],inhibits endothelial proliferation assay of HUVEC cells
same,"Vessel sprouting in mouse aortic ring assay, in words",[3],inhibited vessel sprouting in mouse aortic ring assay in a dose-dependent manner
same,IC50 in cancer cells relative to endothelial cells,[4],5-10 times
same,"VEGF-induced angiogenesis, hemoglobin content inside the Matrigel, in words",[5],inhibits VEGF-induced angiogenesis
same,"Primary tumor growth of Met-1 breast cancer, in words",[6],inhibits primary tumor growth
